Consider five compounds from patent publication US6984521B2, “HEK293 cell line for activity studies and HTS system of α1G T-type Ca2+ channel” (Korea Institute of Science and Technology, priority 2003, dated 2006).

One experiment addresses T1, Kir2.1 (Homo sapiens, UniProt P63252).
T1 construct: expressed in transfected cells; host or cells: HEK293 cells stably expressing α1G T-type calcium channel, transduced with Kir2.1-pMSCVpuro retrovirus (Kir2.1+α1G HEK293)
T1 sequence (P63252 1-427): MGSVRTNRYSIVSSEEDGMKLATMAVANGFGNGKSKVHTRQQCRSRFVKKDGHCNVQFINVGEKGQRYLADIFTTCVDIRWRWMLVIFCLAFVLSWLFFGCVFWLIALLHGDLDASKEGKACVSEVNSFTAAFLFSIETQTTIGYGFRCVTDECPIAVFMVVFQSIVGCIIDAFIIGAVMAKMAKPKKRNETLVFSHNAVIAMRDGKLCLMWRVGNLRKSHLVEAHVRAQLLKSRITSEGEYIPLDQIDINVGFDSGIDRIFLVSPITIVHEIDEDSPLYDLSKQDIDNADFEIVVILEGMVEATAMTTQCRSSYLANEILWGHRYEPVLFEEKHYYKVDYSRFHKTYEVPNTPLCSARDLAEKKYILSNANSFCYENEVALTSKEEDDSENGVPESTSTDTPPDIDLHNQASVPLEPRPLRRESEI
The experiment in a line: Kir2.1 channel current, whole-cell patch-clamp. Format: cell-based. The note with it: Kir2.1+α1G HEK293 cell; -140 to -60 mV step pulse; 1-100 μM Ba2+, 5-500 μM Cs+. As to the method:
Further, the current of IRK-type potassium channel, Kir2.1 was also determined in a single cell level by the whole-cell patch-clamp method. An extracellular solution for determining IRK-type potassium channel activity comprised NaCl 135 mM, KCl 5.4 mM, CaCl2 1.8 mM, MgCl2 1 mM, HEPES 5 mM and glucose 10 mM (pH 7.4). An intracellular solution comprised D-gluconic acid (potassium salt form) 140 mM, MgCl2 2 mM, EGTA 1 mM, HEPES 5 mM and Na2ATP 1 mM (pH 7.4).
After the cell membrane voltage was fixed as about −60 mV in a whole-cell recording mode, −140 to −60 mV of 200 ms step pulse was applied to determine the inward current induced by potassium inwardly-rectifying channel activation of HEK293 cell.
Furthermore, the characteristics of Kir2.1 channel were analyzed by comparing with IC50 value for Ba^2+ and Cs^+, the conventionally known IRK-type potassium channel inhibitor. For this, Kir2.1 channel activity determination method, as discussed above, was used and the inhibition by the known Kir2.1 inhibitor, Ba^2+ and Cs^+, was observed.
FIG. 4e and FIG. 4f are graphs showing the maximum current that occurred at each voltage when 1–100 μM Ba^2+ and 5–500 μM Cs^+ known as Kir2.1 inhibitor were administered to Kir2.1+α1G HEK293 cell under −140 to −60 mV step pulse.
A general note: Patch clamp records ionic current or voltage across a cell membrane.

For the next experiment, the system named is α1G HEK293 cell. The experiment in a line: Intracellular calcium with fura-2/AM, control cell. Format: cell-based, human. The note with it: 70 mM KCl. On the procedure: (§1) The calcium concentration in the cell was determined by using fura-2/AM as a fluorescent Ca^2+ label. The cells were primarily incubated with 5 μM fura-2/AM and 0.001% Pluronic F-127 in HEPES buffer solution (150 mM NaCl, 5 mM KCl, 1 mM MgCl2, 2 mM CaCl2, 10 mM HEPES, 10 mM glucose, pH 7.4) at a room temperature for about 40 to 60 minutes and then washed several times with HEPES buffer solution. After stablilzing the cells for about 10 minutes, the cells were selectively exposed to 340 nm and 380 nm by using an inverted microscope. Thereafter, the emitter fluorescence light that was entered through 515 nm long-pass filter was passed through a cooled CCD […]. The light was converted into the intracellular calcium concentration by digital fluorescence analyzer to determine the calcium concentration.

The next experiment relates to Kir2.1+α1G HEK293 cell. The experiment in a line: Intracellular calcium with fura-2/AM, cell line of the invention. The note with it: 70 mM KCl. It counts as cell-based, human. On the procedure: as §1
In general terms: A change in cytosolic calcium serves as a functional read-out for many receptors and channels.

The target of experiment [1] is T2, α1G T-type calcium channel (Rattus norvegicus, UniProt O54898).
T2 construct: expressed in transfected cells; host or cells: HEK293 stably expressing α1G (α1G HEK293, control) and Kir2.1+α1G HEK293
T2 sequence (O54898 whole entry): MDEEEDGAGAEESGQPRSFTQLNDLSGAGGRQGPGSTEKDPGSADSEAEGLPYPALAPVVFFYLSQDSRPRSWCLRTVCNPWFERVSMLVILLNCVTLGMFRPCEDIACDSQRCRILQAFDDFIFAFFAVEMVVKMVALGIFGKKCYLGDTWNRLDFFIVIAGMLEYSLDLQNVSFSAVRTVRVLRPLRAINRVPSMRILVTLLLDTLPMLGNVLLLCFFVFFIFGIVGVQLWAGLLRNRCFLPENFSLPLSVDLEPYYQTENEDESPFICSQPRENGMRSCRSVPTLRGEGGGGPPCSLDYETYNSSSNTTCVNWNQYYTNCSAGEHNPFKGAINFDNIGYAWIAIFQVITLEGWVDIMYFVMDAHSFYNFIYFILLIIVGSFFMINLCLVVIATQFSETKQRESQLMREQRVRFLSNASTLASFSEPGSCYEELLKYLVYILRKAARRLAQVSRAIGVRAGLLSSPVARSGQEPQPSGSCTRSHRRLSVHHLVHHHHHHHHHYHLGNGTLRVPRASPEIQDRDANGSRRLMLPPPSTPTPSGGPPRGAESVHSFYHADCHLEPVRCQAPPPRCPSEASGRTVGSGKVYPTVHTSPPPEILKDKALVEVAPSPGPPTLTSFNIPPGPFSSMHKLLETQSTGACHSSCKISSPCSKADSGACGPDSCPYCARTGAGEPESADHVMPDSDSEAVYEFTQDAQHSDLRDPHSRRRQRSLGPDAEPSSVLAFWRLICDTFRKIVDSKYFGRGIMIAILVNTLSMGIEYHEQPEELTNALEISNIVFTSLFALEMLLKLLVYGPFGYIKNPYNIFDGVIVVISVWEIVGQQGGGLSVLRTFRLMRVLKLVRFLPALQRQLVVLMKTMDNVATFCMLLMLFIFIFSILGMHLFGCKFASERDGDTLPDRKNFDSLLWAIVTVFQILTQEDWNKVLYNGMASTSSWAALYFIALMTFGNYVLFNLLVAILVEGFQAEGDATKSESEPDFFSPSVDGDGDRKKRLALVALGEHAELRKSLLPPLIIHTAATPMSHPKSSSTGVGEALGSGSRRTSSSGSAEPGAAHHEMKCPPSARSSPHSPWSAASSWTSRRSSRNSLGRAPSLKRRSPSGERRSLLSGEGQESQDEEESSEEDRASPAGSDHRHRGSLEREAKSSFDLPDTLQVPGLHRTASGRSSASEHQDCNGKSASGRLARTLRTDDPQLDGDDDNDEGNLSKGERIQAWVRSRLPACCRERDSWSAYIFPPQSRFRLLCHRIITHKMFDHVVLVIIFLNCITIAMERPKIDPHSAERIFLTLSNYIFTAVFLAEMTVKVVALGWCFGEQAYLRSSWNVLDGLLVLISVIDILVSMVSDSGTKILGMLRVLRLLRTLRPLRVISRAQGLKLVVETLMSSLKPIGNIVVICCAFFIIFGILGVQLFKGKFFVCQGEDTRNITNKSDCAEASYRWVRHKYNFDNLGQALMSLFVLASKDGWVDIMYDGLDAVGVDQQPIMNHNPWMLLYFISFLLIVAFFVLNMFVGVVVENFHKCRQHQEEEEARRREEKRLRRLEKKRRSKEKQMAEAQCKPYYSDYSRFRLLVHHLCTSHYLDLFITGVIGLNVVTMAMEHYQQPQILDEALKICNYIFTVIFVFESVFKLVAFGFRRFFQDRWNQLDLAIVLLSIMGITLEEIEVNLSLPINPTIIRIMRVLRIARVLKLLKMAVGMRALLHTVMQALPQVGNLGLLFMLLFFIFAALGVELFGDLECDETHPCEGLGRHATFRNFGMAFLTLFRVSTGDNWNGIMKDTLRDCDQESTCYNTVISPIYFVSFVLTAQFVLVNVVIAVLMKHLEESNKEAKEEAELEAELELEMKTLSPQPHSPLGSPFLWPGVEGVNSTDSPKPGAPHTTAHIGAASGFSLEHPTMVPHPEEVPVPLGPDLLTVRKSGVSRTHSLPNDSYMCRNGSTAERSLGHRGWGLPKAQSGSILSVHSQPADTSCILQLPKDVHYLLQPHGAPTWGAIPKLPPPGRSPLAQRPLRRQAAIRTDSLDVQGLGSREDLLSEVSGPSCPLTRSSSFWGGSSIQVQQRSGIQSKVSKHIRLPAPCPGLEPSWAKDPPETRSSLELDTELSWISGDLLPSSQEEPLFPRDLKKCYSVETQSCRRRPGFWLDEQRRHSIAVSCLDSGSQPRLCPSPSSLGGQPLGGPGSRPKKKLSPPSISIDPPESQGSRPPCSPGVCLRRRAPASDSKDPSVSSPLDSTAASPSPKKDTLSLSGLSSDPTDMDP
The experiment in a line: T-type calcium channel current, whole-cell patch-clamp. Format: cell-based. The settings on record: activated at about -30 mV; Ni2+ 1 μM to 1 mM, mibefradil 0.1 to 10 μM.
Method: EPC-9 amplifier (HEKA, Germany) was used to determine the current of T-type calcium channel in a single cell level by electrophysiological whole-cell patch-clamp method. An extracellular solution for determining T-type calcium channel activity comprised NaCl 140 mM, CaCl2 2 mM and HEPES 10 mM (pH 7.4), whereas an intracellular solution comprised KCl 130 mM, HEPES 10 mM, EGTA 11 mM and MgATP 5 mM (pH 7.4).
The prepared intracellular solution was introduced into a microglass electrode of about 3–4 MΦ resistance. Then, the single cell was pricked with the electrode to fix the cell membrane voltage as about −100 mV in a whole-cell recording mode. Thereafter, the inward current was determined, in which the current was induced by T-type calcium channel activity when the hypopolarization was caused by about −30 mV (50 ms duration) approximately every 10 seconds.
Furthermore, the characteristics of the channel were analyzed by comparing with IC50 value for Ni^2+ and mibefradil, the conventionally known T-type calcium channel inhibitor. About 1 μM to 1 mM of Ni^2+ and about 0.1 to 10 μM of mibefradil were administered to the cell, respectively, according to the electrophysiological whole-cell patch-clamp method as described above, and then the inhibition (%) of the maximum of the inward current, caused through T-type calcium channel activated at or about −30 mV, was determined.

Turning to `[Ba+2]` [Ba^2+], on Kir2.1, the “inhibition of Kir2.1 current (maximum current at each voltage)” value is recorded as “inhibited in a concentration-dependent manner”.

`[Cs+]` [Cs^+]: at Kir2.1, the “inhibition of Kir2.1 current (maximum current at each voltage)” value is “inhibited in a concentration-dependent manner”. Turning to `[Cl-].[K+]` [KCl], the calcium influx entry in the experiment with α1G HEK293 cell was “does not change calcium influx”; with Kir2.1+α1G HEK293 cell it was “calcium influx is induced”.

For `[Ni+2]` [Ni^2+], the “IC50 for inhibition of inward current through T-type calcium channel, Kir2.1+α1G HEK293 cell compared with α1G HEK293 cell” value in experiment [1] is recorded as “not significantly different”. On the same count and under the same terms, the value for `COCC(=O)O[C@]1(CCN(C)CCCc2nc3ccccc3[nH]2)CCc2cc(F)ccc2[C@@H]1C(C)C` [mibefradil] was “not significantly different”.
